Data taken from PubChem BioAssay (NCI).
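In this assay, cells in 96-well plates receive the compound at five concentrations for 48 hours. Endpoints are linearly interpolated between the surrounding concentrations. TGI: concentration producing complete growth inhibition.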

Experiments:
Assay in all cases: NCI tumour cell line growth inhibition, 48 h
DMS 114 small cell lung = system: DMS 114 small cell lung
HOP-18 NSCLC = system: HOP-18 NSCLC
P388 leukemia = system: P388 leukemia
DMS 273 small cell lung = system: DMS 273 small cell lung
DLD-1 colon = system: DLD-1 colon
SN12K1 renal = system: SN12K1 renal
SNB-78 CNS = system: SNB-78 CNS
M19-MEL melanoma = system: M19-MEL melanoma
XF 498 CNS = system: XF 498 CNS
KM20L2 colon = system: KM20L2 colon
P388/ADR leukemia = system: P388/ADR leukemia
LXFL 529 NSCLC = system: LXFL 529 NSCLC
RXF-631 renal = system: RXF-631 renal

Q: With `C=CC12CN(C)C3C4COC(CC41)C1(C(=O)Nc4ccccc41)C32` (stereo unspecified) as the molecule, how does the TGI (DMS 114 small cell lung) read?
A: > 200 µM

Q: What about the TGI (HOP-18 NSCLC) of the same molecule?
A: > 200 µM

Q: And the TGI (P388 leukemia)?
A: > 133 µM

Q: And the TGI (DMS 273 small cell lung)?
A: > 200 µM

Q: What about the TGI (DLD-1 colon) of the same molecule?
A: > 200 µM

Q: And the TGI (SN12K1 renal)?
A: > 200 µM

Q: What about the TGI (SNB-78 CNS) of the same molecule?
A: > 200 µM

Q: And the TGI (M19-MEL melanoma)?
A: > 200 µM

Q: What about the TGI (XF 498 CNS) of the same molecule?
A: 29.2 µM

Q: And the TGI (KM20L2 colon)?
A: > 200 µM

Q: And the TGI (P388/ADR leukemia)?
A: > 200 µM

Q: For `CC(=O)O[C@]12CCC[C@H]1C1(O)C(O)CCC[C@H]12` (stereo partly specified), which TGI (DMS 114 small cell lung) is on record?
A: > 100 µM

Q: And the TGI (HOP-18 NSCLC)?
A: > 100 µM

Q: What about the TGI (DMS 273 small cell lung) of the same molecule?
A: > 100 µM

Q: What about the TGI (LXFL 529 NSCLC) of the same molecule?
A: > 100 µM

Q: And the TGI (SNB-78 CNS)?
A: > 100 µM

Q: And the TGI (M19-MEL melanoma)?
A: > 100 µM

Q: And the TGI (XF 498 CNS)?
A: > 100 µM

Q: And the TGI (KM20L2 colon)?
A: > 100 µM

Q: What does the source list for `CC(Oc1ccc(OCC2CCCCC2)cc1)C(=O)N(CCO)CCO` (stereo unspecified)?
A: TGI (DMS 114 small cell lung): > 100 µM; TGI (HOP-18 NSCLC): > 100 µM; TGI (DMS 273 small cell lung): > 100 µM; TGI (LXFL 529 NSCLC): > 100 µM; TGI (SNB-78 CNS): > 100 µM; TGI (M19-MEL melanoma): > 100 µM; TGI (XF 498 CNS): > 100 µM

Q: For `CC(CCc1ccc2c(c1)c(=N)c1ccc(N)cc1n2O)CC(C)(C)C` (stereo unspecified), which TGI (HOP-18 NSCLC) is on record?
A: 3.35 µM

Q: And the TGI (DMS 273 small cell lung)?
A: 3.85 µM

Q: And the TGI (DLD-1 colon)?
A: 3.5 µM

Q: What about the TGI (SNB-78 CNS) of the same molecule?
A: 4.32 µM

Q: What about the TGI (M19-MEL melanoma) of the same molecule?
A: 2.98 µM

Q: What about the TGI (XF 498 CNS) of the same molecule?
A: 2.45 µM

Q: And the TGI (KM20L2 colon)?
A: 2.74 µM

Q: What does the source list for `Cn1c(=O)nc2n(-c3ccc(Cl)cc3Cl)c3ccccc3nc-2c1=O`?
A: TGI (DMS 114 small cell lung): 4.26 µM; TGI (HOP-18 NSCLC): 23 µM; TGI (DLD-1 colon): 24.5 µM; TGI (SNB-78 CNS): 39.3 µM; TGI (M19-MEL melanoma): 2.91 µM; TGI (XF 498 CNS): 0.864 µM; TGI (KM20L2 colon): 5.8 µM

Q: Which TGI (DMS 114 small cell lung) does the source give for `COC(=O)[C@@]12OC[C@]34C([C@@H](O)C1O)[C@@]1(C)CC(=O)C(O)=C(C)C1C[C@H]3OC(=O)[C@H](OC(=O)CC(C)C(F)(F)F)[C@H]42` (stereo partly specified) here?
A: 0.128 µM

Q: What about the TGI (HOP-18 NSCLC) of the same molecule?
A: 2.79 µM

Q: And the TGI (DMS 273 small cell lung)?
A: 0.0426 µM

Q: What about the TGI (DLD-1 colon) of the same molecule?
A: 0.509 µM

Q: What about the TGI (LXFL 529 NSCLC) of the same molecule?
A: 0.195 µM

Q: And the TGI (SNB-78 CNS)?
A: 37.5 µM

Q: What about the TGI (M19-MEL melanoma) of the same molecule?
A: 0.205 µM

Q: What about the TGI (XF 498 CNS) of the same molecule?
A: 0.188 µM

Q: What about the TGI (KM20L2 colon) of the same molecule?
A: 0.172 µM

Q: `O=C(Nc1ccc([N+](=O)[O-])cc1)C(=O)C(C(=O)c1ccccc1F)C1OC(=O)c2ccccc21` (stereo unspecified) was tested. Which TGI (DMS 114 small cell lung) did it give?
A: 98 µM

Q: And the TGI (DMS 273 small cell lung)?
A: > 100 µM

Q: What about the TGI (DLD-1 colon) of the same molecule?
A: > 100 µM

Q: And the TGI (LXFL 529 NSCLC)?
A: > 100 µM

Q: What about the TGI (SNB-78 CNS) of the same molecule?
A: > 100 µM

Q: And the TGI (M19-MEL melanoma)?
A: > 100 µM

Q: And the TGI (XF 498 CNS)?
A: > 100 µM

Q: What about the TGI (KM20L2 colon) of the same molecule?
A: > 100 µM

Q: What about the TGI (RXF-631 renal) of the same molecule?
A: 84 µM

Q: With `O=C(O)c1cc2c(s1)C(=O)c1sccc1C2=O` as the molecule, how does the TGI (DMS 114 small cell lung) read?
A: 11.2 µM

Q: And the TGI (HOP-18 NSCLC)?
A: 17.7 µM

Q: What about the TGI (DMS 273 small cell lung) of the same molecule?
A: 22.8 µM

Q: What about the TGI (DLD-1 colon) of the same molecule?
A: 27.7 µM

Q: What about the TGI (SNB-78 CNS) of the same molecule?
A: 0.909 µM

Q: What about the TGI (M19-MEL melanoma) of the same molecule?
A: 2.49 µM

Q: And the TGI (XF 498 CNS)?
A: 35.4 µM

Q: And the TGI (KM20L2 colon)?
A: 35.3 µM
